Test system: β-catenin
Test: Western blot of ischemic retina, β-catenin to β-actin ratio
Assay type: in vivo, rat
Details: n=6, mean±S.E
Protocol: Emodin was purchased from Sigma-Aldrich (E7881; 90%; storage at 2-8° C.; from Frangula bark; St. Louis, Mo., United States). Drug administration for different procedures, namely ERG, fluorogold RGC labelling, cresyl violet retinal staining and Western blot assays, were described in Tables 3 to 6. Vehicle or emodin (5 μL) was administered via an intravitreous injection route so that these agents were then able to be directly diffused to the target. Emodin was dissolved in vehicle (DMSO:distilled water=1:3). The defined final cellular concentrations of administered drug were 0.25 or 0.5 μM, which were achieved after 40 times dilution from the stock concentrations, namely 10 or 20 μM, based on an arbitrary definition of the vitreous volume as 200 μL. To test a wider range of dose-response, 4 μM of emodin was thus added in the animal experiments. […] Denatured proteins were then obtained using lysis buffer (mammalian protein extraction reagent; […]), the samples were then sonicated and quantified to give equivalent amounts of 30 μg/30 μl/well. […] Finally, the PVDF membranes were then developed using an enhanced chemiluminescent analysis system ([…]) and scanned using an imager (Amersham Imager; LifeSciences); the amount of each protein was quantified according to scanning densitometry.

Structure (SMILES): Cc1cc(O)c2c(c1)C(=O)c1cc(O)cc(O)c1C2=O [emodin, 6-methyl-1,3,8-trihydroxyanthraquinone]
- ratio of β-catenin to β-actin protein level (Emo10+IR: pre-ischemic intravitreous 10 μM emodin, Sham normalized to 1, Vehicle+IR 1.64): 1.18±0.24
- ratio of β-catenin to β-actin protein level (Emo20+IR: pre-ischemic intravitreous 20 μM emodin, P=0.02 vs Vehicle+IR, Sham normalized to 1): 1.00±0.19

From patent publication US20210393547A1, “USE OF EMODIN IN TREATING RETINAL ISCHEMIA OR A DISEASE, CONDITION, OR DISORDER ASSOCIATED WITH RETINAL ISCHEMIA” (priority 2020, published 2021)
